pKi: −log10 of the molar value. Counter-ions that a name gives are not always drawn.

Type in all cases: biochemical
The target in assay [1] is T1, human plasmin (Homo sapiens, UniProt P00747).
T1 construct: Purified human plasmin was diluted into assay buffer; purchased Enzyme Research Laboratories (South Bend)
The assay can be described thus: In vitro inhibition of purified enzymes: plasmin, hydrolysis of N-p-Tosyl-Gly-Pro-Lys-p-nitroanilide. An excerpt: (§1) Reagents: All buffer salts were obtained from Sigma Chemical Company (St. Louis, Mo.), and were of the highest purity available. The enzyme substrates, N-benzoyl-Phe-Val-Arg-p-nitroaniide (Sigma B7632) N-benzoyl-Ile-Glu-Gly-Arg-p-nitroanilide hydrochloride (Sigma B2291), N-p-Tosyl-Gly-Pro-Lys-p-nitroanilide (Sigma T6140), N-succinyl-Ala-Ala-Pro-Phe-p-nitroanilide (Sigma S7388) and N-CBZ-Val-Gly-Arg-p-nitroanilide (Sigma C7271) were obtained from Sigma. N-succinyl-Ala-Ala-Pro-Arg-p-nitroanilide (BACHEM L-1720) and N-succinyl-Ala-Ala-Pro-Val-p-nitroanilide (BACHEM L-1770) were obtained from BACHEM (King of Prussia, Pa.).
(§2) Human α-thrombin, human factor Xa and human plasmin were obtained from Enzyme Research Laboratories (South Bend, Id.). Bovine α-chymotrypsin (Sigma C4129), bovine trypsin (Sigma T8642) and human kidney cell urokinase (Sigma U5004) were obtained from Sigma. Human leukocyte elastase was obtained from Elastin Products (Pacific, Mo.).
(§3) Ki Determinations: All assays are based on the ability of the test compound to inhibit the enzyme catalyzed hydrolysis of a peptide p-nitroanilide substrate. In atypical Ki determination, substrate is prepared in DMSO, and diluted into an assay buffer consisting of 50 mM HEPES, 200 mM NaCl, pH 7.5. The final concentrations for each of the substrates is listed below. In general, substrate concentrations are lower than the experimentally determined value for Km. Test compounds are prepared as a 1.0 mg/ml solution in DMSO. Dilutions are prepared in DMSO yielding 8 final concentrations encompassing a 200 fold concentration range. Enzyme solutions are prepared at the concentrations listed below in assay buffer.
(§4) In a typical Ki determination, into each well of a 96 well plate is pipetted 280 mL of substrate solution, 10 mL of test compound solution, and the plate allowed to thermally equilibrate at 37° C. in a Molecular Devices plate reader for>15 minutes. Reactions were initiated by the addition of a […] aliquot of enzyme and the absorbance increase at 405 nm is recorded for 15 minutes. Data corresponding to less than 10% of the total substrate hydrolysis were used in the calculations. The ratio of the velocity (rate of change in absorbance as a function of time) for a sample containing no test compound is divided by the velocity of a sample containing test compound, and is plotted as a function of test compound concentration. The data are fit to a linear regression, and the value of the slope of the line calculated. The inverse of the slope is the experimentally determined Ki value.
Plasmin: Plasmin activity was assessed as the ability to hydrolyze the N-p-Tosyl-Gly-Pro-Lys-p-nitroanilide. Substrate solutions were prepared at a concentration of 37 mM (37 mM<<Km=243 mM) in assay buffer. Final DMSO concentration was 4.3%. Purified human plasmin was diluted into assay buffer to a concentration of 240 nM. Final reagent concentrations were: [Plasmin]=8 nM, [N-p-Tosyl-Gly-Pro-Lys-p-nitroanilide]=37 mM.

The target of assay [2] is T2, bovine trypsin (Bos taurus, UniProt P00760).
T2 construct: Purified bovine trypsin was diluted into assay buffer; purchased Sigma T8642
T2 sequence (P00760 24-246): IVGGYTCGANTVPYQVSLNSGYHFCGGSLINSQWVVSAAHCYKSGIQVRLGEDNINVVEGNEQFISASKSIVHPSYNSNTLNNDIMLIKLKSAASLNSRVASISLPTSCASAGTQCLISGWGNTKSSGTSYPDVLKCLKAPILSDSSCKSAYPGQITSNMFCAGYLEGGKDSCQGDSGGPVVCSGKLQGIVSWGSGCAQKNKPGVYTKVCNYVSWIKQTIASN
The assay can be described thus: In vitro inhibition of purified enzymes: trypsin, hydrolysis of N-benzoyl-Phe-Val-Arg-p-nitroanilide. Particulars: for pKi: 37° C., pH 7.5.
Text: as §1, §2, §3, §4
Trypsin: Trypsin activity was assessed as the ability to hydrolyze N-benzoyl-Phe-Val-Arg-p-nitroanilide. […] Final DMSO concentration was 4.3%. Purified bovine trypsin was diluted into assay buffer to a concentration of 120 nM. Final reagent concentrations were: [Trypsin]=4 nM, [N-benzoyl-Phe-Val-Arg-p-nitroanilide]=13 mM.

Assay [3] addresses T3, human leukocyte elastase (Homo sapiens, UniProt P08246).
T3 construct: purchased Elastin Products (Pacific, Mo.)
T3 sequence (P08246 30-247 limits assumed): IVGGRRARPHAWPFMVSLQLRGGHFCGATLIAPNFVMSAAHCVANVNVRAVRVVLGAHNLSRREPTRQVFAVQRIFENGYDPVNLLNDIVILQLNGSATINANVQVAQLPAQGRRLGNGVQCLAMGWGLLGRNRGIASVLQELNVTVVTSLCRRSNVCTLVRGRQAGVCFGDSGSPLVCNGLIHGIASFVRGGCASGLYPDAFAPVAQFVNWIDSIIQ
The assay can be described thus: In vitro inhibition of purified enzymes: elastase, hydrolysis of N-succinyl-Ala-Ala-Pro-Val-p-nitroanilide.
Text: as §1, §2, §3, §4
Elastase: Elastase activity was assessed as the ability to hydrolyze N-succinyl-Ala-Ala-Pro-Val-p-nitroanilide. Substrate solutions were prepared at a concentration of 19 mM (19 mM<<Km=89 mM) in assay buffer. Final DMSO concentration was 4.3%. Purified human leukocyte elastase was diluted into assay buffer to a concentration of 750 nM. Final reagent concentrations were: [Elastase]=25 nM, [N-succinyl-Ala-Ala-Pro-Val-p-nitroanilide]=19 mM.

Assay [4] concerns the target T4, bovine α-chymotrypsin (Bos taurus, UniProt P00766).
T4 construct: Bovine α-chymotrypsin (Sigma C4129); purchased Sigma C4129
The assay can be described thus: In vitro inhibition of purified enzymes: chymotrypsin, hydrolysis of N-succinyl-Ala-Ala-Pro-Phe-p-nitroanilide.
Text: as §1, §2, §3, §4
Chymotrypsin: Chymotrypsin activity was assessed as the ability to hydrolyze N-succinyl-Ala-Ala-Pro-Phe-p-nitroanilide. […] Final DMSO concentration was 4.3%. Purified bovine chymotrypsin was diluted into assay buffer to a concentration of 81 nM. Final reagent concentrations were: [Chymotrypsin]=2.7 nM, [N-succinyl-Ala-Ala-Pro-Phe-p-nitroanilide]=14 mM.

The target in assay [5] is T5, human factor Xa (Homo sapiens, UniProt P00742).
T5 construct: purchased Enzyme Research Laboratories (South Bend)
T5 sequence (P00742 235-488 limits assumed): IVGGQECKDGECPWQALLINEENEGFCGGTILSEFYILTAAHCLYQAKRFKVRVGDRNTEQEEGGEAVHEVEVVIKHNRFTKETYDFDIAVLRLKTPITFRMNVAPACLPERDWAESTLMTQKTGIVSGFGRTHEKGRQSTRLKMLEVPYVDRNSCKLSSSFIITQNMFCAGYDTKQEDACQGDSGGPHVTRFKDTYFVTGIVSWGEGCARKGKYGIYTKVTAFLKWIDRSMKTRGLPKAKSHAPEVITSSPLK
T5 sequence (P00742 41-179 partner limits assumed): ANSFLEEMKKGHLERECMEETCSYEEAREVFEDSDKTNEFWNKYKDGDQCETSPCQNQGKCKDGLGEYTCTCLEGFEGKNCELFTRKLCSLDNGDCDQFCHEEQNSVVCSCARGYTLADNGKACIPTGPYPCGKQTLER
The assay can be described thus: In vitro inhibition of purified enzymes: Factor X [FXa], hydrolysis of N-benzoyl-Ile-Glu-Gly-Arg-p-nitroanilide. As to conditions: for pKi: 37° C., pH 7.5.
Text: as §1, §2, §3, §4
Factor X [FXa]: FXa activity was assessed as the ability to hydrolyze the substrate N-benzoyl-Ile-Glu-Gly-Arg-p-nitroanilide hydrochloride. […] Final DMSO concentration was 4.3%. Purified activated human Factor X was diluted into assay buffer to a concentration of 300 nM. Final reagent concentrations were: [FXa]=10 nM, [N-benzoyl-Ile-Glu-Gly-Arg-p-nitroanilide hydrochloride]=51 mM.

For assay [6], the target named is T6, human α-thrombin (Homo sapiens, UniProt P00734).
T6 construct: Purified human a-thrombin was diluted into assay buffer; purchased Enzyme Research Laboratories (South Bend)
The assay can be described thus: In vitro inhibition of purified enzymes: thrombin, hydrolysis of N-succinyl-Ala-Ala-Pro-Arg-p-nitroanilide. Particulars: 37° C., pH 7.5.
Text: Reagents: All buffer salts were obtained from Sigma Chemical Company (St. Louis, Mo.), and were of the highest purity available. The enzyme substrates, N-benzoyl-Phe-Val-Arg-p-nitroaniide (Sigma B7632) N-benzoyl-Ile-Glu-Gly-Arg-p-nitroanilide hydrochloride (Sigma B2291), N-p-Tosyl-Gly-Pro-Lys-p-nitroanilide (Sigma T6140), N-succinyl-Ala-Ala-Pro-Phe-p-nitroanilide (Sigma S7388) and N-CBZ-Val-Gly-Arg-p-nitroanilide (Sigma C7271) were obtained from Sigma.
as §2
Ki Determinations: All assays are based on the ability of the test compound to inhibit the enzyme catalyzed hydrolysis of a peptide p-nitroanilide substrate. […] The final concentrations for each of the substrates is listed below. In general, substrate concentrations are lower than the experimentally determined value for Km. Test compounds are prepared as a 1.0 mg/ml solution in DMSO. Dilutions are prepared in DMSO yielding 8 final concentrations encompassing a 200 fold concentration range. Enzyme solutions are prepared at the concentrations listed below in assay buffer.
as §4, with “Reactions” for “In a typical Ki determination, into each well of a 96 well plate is pipetted 280 mL of substrate solution, 10 mL of test compound solution, and the plate allowed to thermally equilibrate at 37° C. in a Molecular Devices plate reader for>15 minutes. Reactions”
Thrombin: Thrombin activity was assessed as the ability to hydrolyze the substrate N-succinyl-Ala-Ala-Pro-Arg-p-nitroanilide. […] Final reagent concentrations were: [thrombin]=0.5 nM, [substrate N-succinyl-Ala-Ala-Pro-Arg-p-nitroanilide]=32 mM.

T1 sequence (P00747 581-810 limits assumed): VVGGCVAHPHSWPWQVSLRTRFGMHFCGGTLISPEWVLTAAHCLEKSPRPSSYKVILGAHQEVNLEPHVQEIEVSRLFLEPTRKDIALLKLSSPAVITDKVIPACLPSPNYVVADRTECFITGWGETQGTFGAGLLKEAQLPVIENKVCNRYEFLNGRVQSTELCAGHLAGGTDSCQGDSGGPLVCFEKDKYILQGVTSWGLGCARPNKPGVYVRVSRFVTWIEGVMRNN
T1 sequence (P00747 97-580 partner limits assumed): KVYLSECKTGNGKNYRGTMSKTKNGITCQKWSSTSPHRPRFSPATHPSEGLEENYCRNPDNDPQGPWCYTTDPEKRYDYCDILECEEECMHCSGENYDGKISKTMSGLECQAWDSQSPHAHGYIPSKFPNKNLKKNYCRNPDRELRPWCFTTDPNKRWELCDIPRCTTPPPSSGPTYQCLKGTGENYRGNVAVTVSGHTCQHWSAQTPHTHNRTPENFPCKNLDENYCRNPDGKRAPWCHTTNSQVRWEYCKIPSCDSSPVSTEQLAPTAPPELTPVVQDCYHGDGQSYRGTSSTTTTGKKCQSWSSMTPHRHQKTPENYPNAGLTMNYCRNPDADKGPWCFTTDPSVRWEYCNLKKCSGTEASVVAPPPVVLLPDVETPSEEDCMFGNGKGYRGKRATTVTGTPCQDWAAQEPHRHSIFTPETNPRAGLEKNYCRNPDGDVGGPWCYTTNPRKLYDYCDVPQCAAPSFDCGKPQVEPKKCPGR

By pKi is commonly meant −log10 of the Ki, conventionally taken in molar units. As to `Cc1ccc(NS(=O)(=O)Cc2ccccc2)c(=O)n1CC(=O)NCCCONC(=N)N.O=C(O)C(F)(F)F` [Example 1, 3-Benzylsulfonylamino-6-methyl-1-[(3-guanidinooxypropyl)aminocarbonylmethyl]-2-pyridinone trifluorocaetate], the “% Inhibition Plasmin” value in assay [1] (at 24,000 nM) is on record as 0 @ %. In addition, the “% Inhibition Trypsin” value in assay [2] (at 24,000 nM) was 0 @ %. Further, the “% Inhibition Elastase” value in assay [3] (at 24,000 nM) was 0 @ %. Moreover, the “% Inhibition Chymo.” value in assay [4] (at 24,000 nM) is on record as 0 @ %. Also, the “% Inhibition FXa” value in assay [5] (at 24,000 nM) is recorded as 0 @ %. For the same molecule, the negative logarithm of the Ki (pKi) in assay [6] is 7.28.
The inhibition is how much of the control response was suppressed. Consider `Cc1ccc(NS(=O)(=O)Cc2ccccc2)c(=O)n1CC(=O)NCCONC(=N)N` [Example 2, 3-Benzylsulfonylamino-6-methyl-1-[(2-guanidinooxyethyl)aminocarbonylmethyl]-2-pyridinone trifluoroacetate], for which the inhibition at 24.5 µM in assay [1] (at 24,500 nM), in assay [2] (at 24,500 nM) and in assay [3] (at 24,500 nM) was 0% throughout. In addition, the pKi in assay [4] (37° C., pH 7.5, read-out: Ki Chymo.) was 4.85; in assay [5], 4.62; in assay [6], 8.10.
In assay [3] (at 79,000 nM), `N=C(N)NOCCNC(=O)Cn1cccc(NS(=O)(=O)Cc2ccccc2)c1=O` [Example 4, 3-Benzylsulfonylamino-1-[(2-guanidinooxyethyl)aminocarbonylmethyl]-2-pyridinone trifluoroacetate] came in with an inhibition at 79 µM of 0%. In addition, the pKi is 5.10 in assay [5] and 7.54 in assay [6].
Take `Cc1cccc(S(=O)(=O)Nc2ccc(C)n(CC(=O)NCCONC(=N)N)c2=O)c1` [Example 5, 3-(3-Methylphenylsulfonyl)amino-6-methyl-1-[(2-guanidinooxyethyl)aminocarbonylmethyl]-2-pyridinone trifluoroacetate]: the inhibition at 24.6 µM in assay [1] (at 24,600 nM) came out at 0%; in assay [2] (at 24,600 nM) it was 0%; in assay [3] (at 24,600 nM) it was 0%; in assay [4] (at 24,600 nM, read-out: % Inhibition Chymo.) it was 0%.
For the molecule `Cc1ccc(NS(=O)(=O)Cc2ccccc2)c(=O)n1CC(=O)N1CCC(ONC(=N)N)CC1` [Example 8, 3-(Benzylsulfonyl)amino-6-methyl-1-[(4-guanidinooxy)piperidinylcarbonylmethyl]-2-pyridinone trifluoroacetate], the inhibition at 56 µM in assay [2] (at 56,000 nM) and in assay [3] (at 56,000 nM) was 0% in each case. The negative-log Ki (pKi) in assay [6] was 7.37.
As to `Cc1ccc(NS(=O)(=O)Cc2ccc(Cl)cc2)c(=O)n1CC(=O)NCCONC(=N)N` [Example 16, 3-(4-Chlorobenzylsulfonyl)amino-6-methyl-1-[(2-guanidinooxyethyl)aminocarbonylmethyl]-2-pyridinone trifluoroacetate], the pKi was 5.40 in assay [2], 5.66 in assay [5] and 8.70 in assay [6]. This molecule also returned an inhibition at 19 µM in assay [3] (at 19,000 nM) of 0%.
As to `Cc1ccc(NS(=O)(=O)Cc2ccc(Cl)c(Cl)c2)c(=O)n1CC(=O)NCCONC(=N)N` [Example 24, 3-(3,4-Dichlorobenzylsulfonyl)amino-6-methyl-1-[(2-guanidinooxyethyl)aminocarbonylmethyl]-2-pyridinone trifluoroacetate], the pKi in assay [2] was 5.12; in assay [5] it was 5.66; in assay [6], 8.70. This molecule registered an inhibition at 18 µM in assay [3] (at 18,000 nM) of 0%.
On to `COc1ccc(Br)cc1S(=O)(=O)Nc1ccc(C)n(CC(=O)NCCONC(=N)N)c1=O` [Example 55, 3-(3-Bromo-6-methoxyphenylsulfonyl)amino-6-methyl-1-[(2-guanidinooxyethyl)aminocarbonylmethyl]-2-pyridinoine trifluoroacetate], for which the pKi in assay [2] is 5.64; in assay [5], 5.68; in assay [6], 6.66.

For the origin of these results see patent publication US6350764B2, “Heteroaryl aminoguanidines and alkoxyguanidines and their use as protease inhibitors” (3-Dimensional Pharmaceuticals, Inc., priority 1997, dated 2002).
